From US20250032454A1, “KDM1A INHIBITORS FOR THE TREATMENT OF DISEASE” (Imago Biosciences, Inc., priority 2021, published 2025) come the findings set out here.

Like-named read-outs stand apart in the source and are kept apart here.

In one assay the target is LSD1 (Homo sapiens, UniProt O60341). As to the kind of experiment: LSD1 fluorescence coupling enzyme assay (HRP/Amplex Red, H3(1-21)K4me2 peptide), 10-dose IC50. It counts as biochemical. Particulars: 10 μM histone H3(1-21)K4me2 peptide substrate, 3-fold serial dilution from 100 μM. The text has this: Assaying the inhibition of KDM1A can be determined in vitro, in cultured cells, and in animals. There are a variety of spectrophotometric methods to detect the results of demethylation of methylated lysines, viz., detecting the products of KDM1A demethylase oxidative activity on a peptide fragment of at least 18 amino acids representing the N-terminus of the histone H3 substrate that contains a monomethyl at the fourth lysine residue. Hydrogen peroxide, one product of the KDM1A demethylase reaction, reacts with horseradish peroxidase and dihydroxyphenoxazine (ADHP) to produce the fluorescent compound resorufin (excitation=530-560 nm: emission=590 nm). The KDM1A demethylase enzyme activity can be obtained from mammalian cells or tissues expressing KDM1A from an endogenous or recombinant gene and purified or assayed from a whole cell extract. These methods can be used to determine the concentration of the disclosed compounds can inhibit fifty percent of the enzyme activity (IC50).
Alternatively, the production of H2O2 during the KDM1A reaction can be detected fluometrically. In this system, the production of H2O2 is detected in the HDM assay buffer after exposure to substrate, co-factor and enzyme using ADHP (10-Acetyl-3, 7-dihydroxyphenoxazine) as a fluorogenic substrate for horse radish peroxidase (HRP). […] The florescent product is resorufin. Sensitivity can be as low as 10-15 M of target protein. The signal is read using a fluorescence microplate reader at excitation and emission wavelengths of 530-560 nm and 590 nm, respectively.
Compounds were tested in a 10-dose IC50 mode fluorescence coupling enzyme assay with 3-fold serial dilution in duplicate starting at 100 μM. The production of FAD-dependent H2O2 as a result of demethylase activity of LSD1 on 10 μM histone H3(1-21)K4me2 peptide substrate was measured by coupling with HRP and Amplex Red to yield resorufin (fluorescence measured at Ex/Em=535/590 nm on EnVision, Perkin Elmer).

The next assay relates to MV4;11 cells. The experiment in a line: Cell Titer-Glo cell growth inhibition in MV4;11 cell line (Day 5 / Day 10). It counts as cell-based. How it is done: Cell growth inhibition against MV4;11 cells was confirmed for the synthetic compounds. The Cell Titer-Glo Luminescent Cell Viability Assay (Promega, USA) was used to determine the number of viable cells in culture based on quantitation of the ATP present, which signals the presence of metabolically active cells. This assay was run in a 96-well plate format arrayed in a 10-point dose curve, ranging from 0 to 50 µM with 4-fold dilutions for each compound. Cells are seeded on Day 0 at 3750 cells per well. At Day 5, a portion of each well is assayed for viability according to the Cell Titer-Glo protocol. Briefly, cells/plates were centrifuged at 1100×g for 5 minutes. 100 μL of media was removed from each well and replaced with 100 μL of CellTiter-Glo. The plates were shaken at room temperature for 10 minutes and measured on a luminescence plate reader. Another portion of each well from the Day 5 plate is used to seed a new 96 plate containing fresh compound and media set up in the equivalent 10-point dose curve array in order to continue the cell growth inhibition assay for another 5 days. A final timepoint is collected at Day 10 using the Cell Titer-Glo protocol. Luminescence was detected on an En Vision® Multilabel Plate Reader (Perkin Elmer, Waltham, Mass.) and IC50 determination was made using Graph Pad Prism software.
A general note: Cellular ATP, detected with luciferase, serves as a proxy for viable cell number.

Setting [1] is: Day 5, read-out: Cell Titer-Glo IC50 (5 d).
The mark [2] stands for this setting: Homo sapiens, MV4-11, 120 h, Day 5, read-out: Cell Titer-Glo IC50 (5 d).
The mark [3] stands for this setting: Homo sapiens, MV4-11, 240 h, Day 10, read-out: Cell Titer-Glo IC50 (10 d).

The term IC50 denotes the concentration needed to halve the response being measured.

Consider “4-(3-(4-aminopiperidin-1-yl)-1-(p-tolyl)-1H-pyrazol-5-yl)-2-fluorobenzonitrile/4-(5-(4-aminopiperidin-1-yl)-1-(p-tolyl)-1H-pyrazol-3-yl)-2-fluorobenzonitrile [Example 34]”, for which the concentration for half-maximal inhibition (IC50) against LSD1 was less than 500 nM; in the assay with MV4;11 cells (setting [1]), 1000 to 10000 nM.
With `COc1ccc(-n2nc(NCC3CC[C@@H](N)C3)cc2-c2ccc(C#N)c(F)c2)cc1` (mixture of isomers) [Example 4, rac-4-(3-((((1S,3R)-3-aminocyclopentyl)methyl)amino)-1-(4-methoxyphenyl)-1H-pyrazol-5-yl)-2-fluorobenzonitrile], the IC50 against LSD1 is less than 500 nM; in the assay with MV4;11 cells (setting [2]) it was 1000 to 10000 nM.
Regarding `COc1ccc(-n2nc(NC[C@H]3CCC[C@@H](N)C3)cc2-c2ccc(C#N)c(F)c2)cc1` (racemic) [Example 5, rac-4-(3-((((15,3R)-3-aminocyclohexyl)methyl)amino)-1-(4-methoxyphenyl)-1H-pyrazol-5-yl)-2-fluorobenzonitrile], the IC50 on LSD1 and in the assay with MV4;11 cells (setting [2]) was less than 500 nM throughout.
For `Cn1ncc2cc(-n3nc(NCC4CCCC(N)C4)cc3-c3ccc(C#N)c(F)c3)ccc21` (racemic) [Example 7, rac-4-(3-(((3-aminocyclohexyl)methyl)amino)-1-(1-methyl-1H-indazol-5-yl)-1H-pyrazol-5-yl)-2-fluorobenzonitrile], the IC50 against LSD1 and with MV4;11 cells (setting [2]) was less than 500 nM in each case.
As for `COc1ccc(-n2nc(NCC3CC3N)cc2-c2ccc(C#N)c(F)c2)cc1` (racemic) [Example 29, (±)-trans-4-(3-(((2-aminocyclopropyl)methyl)amino)-1-(4-methoxyphenyl)-1H-pyrazol-5-yl)-2-fluorobenzonitrile], the IC50 at LSD1, in the assay with MV4;11 cells (setting [2]) and with MV4;11 cells (setting [3]) was 1000 to 10000 nM throughout.
As for `COc1ccc(-n2nc(NC[C@H]3CC[C@@H](N)C3)cc2-c2ccc(C#N)c(F)c2)cc1` (single isomer, unassigned) [Example 4a], the IC50 at LSD1 and in the assay on MV4;11 cells (setting [2]) was less than 500 nM throughout.
For `COc1ccc(-n2nc(NC[C@@H]3CC[C@H](N)C3)cc2-c2ccc(C#N)c(F)c2)cc1` (single isomer, unassigned) [Example 4b], the IC50 is less than 500 nM against LSD1 and 500 to 1000 nM in the assay on MV4;11 cells (setting [2]).
Take `COc1ccc(-n2nc(NC[C@H]3CCC[C@@H](N)C3)cc2-c2ccc(C#N)c(F)c2)cc1` (single isomer, unassigned) [Example 5a]: the IC50 on LSD1 was less than 500 nM; with MV4;11 cells (setting [2]), 500 to 1000 nM.
Regarding `COc1ccc(-n2nc(NC[C@@H]3CCC[C@H](N)C3)cc2-c2ccc(C#N)c(F)c2)cc1` (single isomer, unassigned) [Example 5b], the IC50 on LSD1 and with MV4;11 cells (setting [2]) was less than 500 nM each time.
`Cn1ncc2cc(-n3nc(NC[C@H]4CCC[C@@H](N)C4)cc3-c3ccc(C#N)c(F)c3)ccc21` (single isomer, unassigned) [Example 7a]: the IC50 against LSD1 was 500 to 1000 nM; with MV4;11 cells (setting [2]) it was 1000 to 10000 nM.
The corresponding values for `Cn1ncc2cc(-n3nc(NC[C@@H]4CCC[C@H](N)C4)cc3-c3ccc(C#N)c(F)c3)ccc21` (single isomer, unassigned) [Example 7b] are less than 500 nM and 500 to 1000 nM.
Regarding `Cn1ncc2cc(-n3nc(NC[C@H]4CCC[C@H](N)C4)cc3-c3ccc(C#N)c(F)c3)ccc21` (single isomer, unassigned) [Example 7c], the IC50 on LSD1, with MV4;11 cells (setting [2]) and in the assay with MV4;11 cells (setting [3]) was less than 500 nM each time.
Consider `Cn1ncc2cc(-n3nc(NC[C@@H]4CCC[C@@H](N)C4)cc3-c3ccc(C#N)c(F)c3)ccc21` (single isomer, unassigned) [Example 7d], for which the IC50 against LSD1, with MV4;11 cells (setting [2]) and in the assay on MV4;11 cells (setting [3]) was less than 500 nM in each case.
Turning to `Cn1cc2cc(-n3nc(NC[C@@H]4CCCNC4)cc3-c3ccc(C#N)c(F)c3)ccc2n1` (single isomer, unassigned) [Example 9a], the results for the IC50 on LSD1 and in the assay on MV4;11 cells (setting [2]) were 1000 to 10000 nM and less than 500 nM, respectively.
In the same order, the values of `Cn1cc2cc(-n3nc(NC[C@H]4CCCNC4)cc3-c3ccc(C#N)c(F)c3)ccc2n1` (single isomer, unassigned) [Example 9b] are less than 500 nM and less than 500 nM.
For `COc1ccc(-n2nc(NCC3CCCNCC3)cc2-c2ccc(C#N)c(F)c2)cc1` (single isomer, unassigned) [Example 22a, 4-(3-((azepan-4-ylmethyl)amino)-1-(4-methoxyphenyl)-1H-pyrazol-5-yl)-2-fluorobenzonitrile], the IC50 on LSD1, in the assay with MV4;11 cells (setting [2]) and in the assay on MV4;11 cells (setting [3]) was less than 500 nM throughout.
Take `COc1ccc(-n2nc(NCC3CCCNCC3)cc2-c2ccc(C#N)c(F)c2)cc1` (single isomer, unassigned) [Example 22b, 4-(3-((azepan-4-ylmethyl)amino)-1-(4-methoxyphenyl)-1H-pyrazol-5-yl)-2-fluorobenzonitrile]: the IC50 at LSD1 is less than 500 nM; in the assay on MV4;11 cells (setting [1]) it was 500 to 1000 nM; with MV4;11 cells (Day 10, read-out: Cell Titer-Glo IC50 (10 d)) it was less than 500 nM.
Take `N#Cc1ccc(-c2cc(NC[C@@H]3CCCNCC3)nn2-c2ccc(N3CCCC3)cc2)cc1F` (single isomer, unassigned) [Example 24a]: the half-maximal inhibitory concentration (IC50) at LSD1, with MV4;11 cells (setting [2]) and in the assay on MV4;11 cells (setting [3]) was less than 500 nM in each case.
`N#Cc1ccc(-c2cc(NC[C@H]3CCCNCC3)nn2-c2ccc(N3CCCC3)cc2)cc1F` (single isomer, unassigned) [Example 24b]: the IC50 at LSD1, in the assay with MV4;11 cells (setting [2]) and with MV4;11 cells (setting [3]) was less than 500 nM in each case.
In the case of `N#Cc1ccc(-c2cc(NC[C@@H]3CCCNCC3)nn2-c2ccc(C(=O)N3CCCC3)cc2)cc1F` (single isomer, unassigned) [Example 25a], the IC50 against LSD1, in the assay with MV4;11 cells (setting [2]) and in the assay on MV4;11 cells (setting [3]) was less than 500 nM throughout.
On to `N#Cc1ccc(-c2cc(NC[C@H]3CCCNCC3)nn2-c2ccc(C(=O)N3CCCC3)cc2)cc1F` (single isomer, unassigned) [Example 25b], for which the values for the IC50 against LSD1, in the assay with MV4;11 cells (setting [2]) and with MV4;11 cells (setting [3]) were less than 500 nM, 1000 to 10000 nM and less than 500 nM, respectively.
Take `N#Cc1ccc(-c2cc(NC[C@@H]3CCCNCC3)nn2-c2ccc(N3CCS(=O)(=O)CC3)cc2)cc1F` (single isomer, unassigned) [Example 26a]: the IC50 against LSD1, in the assay on MV4;11 cells (setting [2]) and with MV4;11 cells (setting [3]) was less than 500 nM throughout.
With `N#Cc1ccc(-c2cc(NC[C@H]3CCCNCC3)nn2-c2ccc(N3CCS(=O)(=O)CC3)cc2)cc1F` (single isomer, unassigned) [Example 26b], the IC50 against LSD1, in the assay with MV4;11 cells (setting [2]) and with MV4;11 cells (setting [3]) was less than 500 nM in each case.
For the compound `N#Cc1ccc(-c2cc(NC[C@@H]3CCCNCC3)nn2-c2ccc(N3CCN(CCO)CC3)cc2)cc1F` (single isomer, unassigned) [Example 27a], the IC50 at LSD1 is less than 500 nM; with MV4;11 cells (setting [2]), 500 to 1000 nM; in the assay on MV4;11 cells (setting [3]), less than 500 nM.
For the compound `N#Cc1ccc(-c2cc(NC[C@H]3CCCNCC3)nn2-c2ccc(N3CCN(CCO)CC3)cc2)cc1F` (single isomer, unassigned) [Example 27b], the IC50 at LSD1, in the assay on MV4;11 cells (setting [2]) and in the assay with MV4;11 cells (setting [3]) was less than 500 nM throughout.
For the compound `COC1CCN(c2ccc(-n3nc(NC[C@H]4CCC[C@H](NC(=N)N)C4)cc3-c3ccc(C#N)c(F)c3)cc2)CC1` [Example 128, 1-((1S,3S)-3-(((5-(4-cyano-3-fluorophenyl)-1-(4-(4-methoxypiperidin-1-yl)phenyl)-1H-pyrazol-3-yl)amino)methyl)cyclohexyl)guanidine], at LSD1, the IC50 was less than 500 nM.
